Patent US9394544B2, “Ameliorating oxidative stress in neurodegenerative disease via Nox1 targeting” (University of Central Florida Research Foundation, Inc., priority 2013, dated 2016)

Columns and labels:
Nox1 = assay: Nuclear localization of Nox1-EGFP in N27 cells (confocal microscopy); type: cell-based, rat; details: N27 cells expressing Nox1-EGFP; 6-OHDA 50 μM 6 h, rotenone 5 μM 18 h
Excerpt: The observation that Nox1 was induced by a variety of oxidative stimuli in vitro led one to test Nox1 expression in the rat substantia nigra DA (SNDA) neurons administered with 6-OHDA. […] Neither astrocytes nor microglia expressed Nox1, as verified by co-immunostaining of Nox1 with GFAP (astrocytes) or CD11b (microglia) (FIG. 3B). Increased Nox1 transcript was found in the SN as shown by in situ hybridization (FIG. 3C). […] As early as 3 days post 6-OHDA injection, Nox1 expression was increased in the nucleus and in the cytoplasm of DA neurons (FIG. 4A). […] Nuclear expression of the Nox1/Rac1 complex was further analyzed in N27 cells after treatment with 6-OHDA. First, activated Rac1 was detected by immunoprecipitation of nuclear extracts of N27 cells after a 24 h treatment with 6-OHDA. […] Next, it was established that N27 cells stably expressing Nox1 tagged with EGFP at the C-terminus. […] To examine whether nuclear translocation of Nox1 in dopaminergic cells is observed under different conditions that cause dopaminergic neuronal death, mitochondrial respiratory complex inhibitor, rotenone, was tested.

SN dopaminergic neurons = assay: Stereological count of TH-positive dopaminergic neurons in the SN, PQ rat model; type: in vivo; details: vector+PQ group, or Nox1 shRNA+PQ group
Experimental: The experiments were performed on rats, in accordance with the National Institutes for Health Guide for the Care and Use of Laboratory Animals. All procedures were approved by the local Animal Care and Use Committee. Male Wistar rats (8-10 weeks; Charles River) were maintained in a temperature/humidity-controlled environment under a 12 h light/dark cycle with ad libitum access to food and water. As depicted in FIG. 13A, each animal received four intraperitoneal injections, separated by 1 d, of either vehicle (saline) or PQ (10 mg/kg body weight; b.w.), according to a previously published dose (Manning-Bog et al., 2002; Harraz et al., 2008; Cristovao et al., 2009). All animals were weighed at day 1 and 12. In the studies using the paradigm depicted in FIG. 13A, 4 weeks before starting PQ intraperitoneal injection, animals were stereotaxically injected with various viral constructs at the right SN using the following coordinates: mediolateral, +2.0; anteroposterior, −5.3; dorsoventral, −6.8. […]
Following perfusion with saline and 4% PFA in PBS, brains were removed, and forebrain and midbrain blocks were immersion fixed in 4% PFA and cryoprotected in sucrose. […] The numbers of TH-immunoreactive cells in the SN were counted using an optical fractionator. […]

Row | Compound | nuclear localization of Nox1 (Nox1) | dopaminergic neuronal loss (stereological count of TH-positive neurons) (SN dopaminergic neurons) [%]
1 | NCCc1cc(O)c(O)cc1O [6-OHDA, 6-hydroxydopamine] | translocation of Nox1-EGFP into the nucleus | 
2 | C[n+]1ccc(-c2cc[n+](C)cc2)cc1 [PQ, paraquat] |  | 37
